Data from the METLIN SMRT retention time set (Domingo-Almenara et al. 2019).

Test: gradient 5% acetonitrile 3 min, to 50% in 2 min, to 85% in 15 min, held 3 min, 100 µL/min
Conditions: column: Zorbax Extend-C18 2.1 x 50 mm; eluents: water / acetonitrile, 0.1% formic acid
Procedure, shortened: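 Retention times come from adduct peaks that were picked computationally and then checked by hand. The standards, pure and pooled in mixtures of ~100 molecules, were run on a Zorbax Extend-C18 column (2.1 × 50 mm, 1.8 μm) at 100 μL/min with water and acetonitrile, each with 0.1% formic acid. Detection was by quadrupole time-of-flight mass spectrometry in positive and negative ionization mode, with a dead volume of 40 μL and a dwell volume of 900 μL.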

Row | Compound | RP-LC retention time [s]
1 | CCOC(=O)c1c(S(=O)(=O)N2CCC(C(=O)NC3CCCCCC3)CC2)c(C)n(C)c1C | 877
2 | CN1CCN(C(=O)CN2C(=O)C3CCCCN3c3ccc(S(=O)(=O)N4CCCC4)cc32)CC1 (stereo not given) | 631
3 | COc1ccc(NC(=O)N2CCC(CC(=O)N3CCCCC3)CC2)cc1Cl | 774
4 | CNC(=O)c1ccc(Nc2c(-c3ccccc3)nc3cnccn23)cc1 | 644
5 | O=C(NC1CC1)[C@@H]1C[C@H](Oc2cccnc2)CN1C(=O)C1CCC1 | 557
6 | Cc1cccc(NC(=O)Cn2cnc3nc(N4CCC(C(=O)NC5CC5)CC4)sc3c2=O)c1 | 658
7 | CC(=O)N1CCC2(CC1)CC(N(C(=O)NC(C)C)C1CC1)CCO2 (stereo not given) | 653
8 | O=C(CN1C(=O)C2CCCCN2c2ccc(S(=O)(=O)N3CCCC3)cc21)NC1CC1 (stereo not given) | 770
9 | Cc1[nH]c(C(=O)N2CCCC(C(=O)NCc3ccccc3F)C2)c(C)c1C(=O)OC(C)C (stereo not given) | 860
10 | CC(C)(C)C(=O)OCOP(=O)(COCCn1cnc2c(N)ncnc21)OCOC(=O)C(C)(C)C | 725
11 | Clc1cncc(N2CCNCC2)n1 | 614
12 | O=S(=O)(c1ccc2c(c1)OCCO2)N1CCCn2nc(-c3cccnc3)cc2C1 | 621
13 | CC(=O)Oc1ccc2ccc(=O)oc2c1OC(C)=O | 856
14 | Cc1cccc(S(=O)(=O)N2CC3CN(C(=O)c4cnccn4)CC(C2)O3)c1 | 688
15 | CC1(CNC(=O)c2ccc3c(c2)OCO3)CCOCC1 | 664
16 | CCC(C)NC(=O)c1c2c(cn(-c3ccccc3)c1=O)C(=O)CC(C)(C)C2 (stereo not given) | 942
17 | c1ccc(N2CCN(CCCOc3ccc4c(c3)OCO4)CC2)cc1 | 770
18 | O=C(c1c(F)cccc1F)N1CCN(S(=O)(=O)c2cc3c4c(c2)CCC(=O)N4CCC3)CC1 | 799
19 | Cc1nc(C)c(C(=O)Nc2nc(-c3ccc(Br)cc3)cs2)s1 | 1030
20 | O=C(c1nnc(-c2ccc(S(=O)(=O)N3CCCC3)cc2)o1)N1CCN(c2ccccn2)CC1 | 650
21 | O=C(NCCCN1CCCCC1)C1CCN(c2nc3cccnc3s2)CC1 | 577

Row | Compound | RP-LC retention time [s]
22 | COC(=O)c1cc(S(=O)(=O)N2CCCC2C(=O)Nc2cccc(OC)c2)cn1C (stereo not given) | 826
23 | COc1ccc(-c2cnn3c(C)cc(C)nc23)cc1S(=O)(=O)NC(C)c1ccccc1 (stereo not given) | 1010
24 | COc1cccc2c1cc1c(=O)n(CC(=O)N3CCN(c4ccccn4)CC3)nc(C)n12 | 591
25 | CCc1noc(C2(NC(=O)c3nn(C)c4ccccc34)CCCCC2)n1 | 1010
26 | CN(C)[C@@H]1CN(C(=O)c2cc3cc(Cl)ccc3[nH]2)C[C@H]1CO | 622
27 | CCc1sc(NC(=O)c2cc3c([nH]c2=O)CCCC3=O)nc1-c1ccc2c(c1)CCCC2 | 1170
28 | Cc1ccc(N2CCN(Cc3nc4nc(C)cc(N5CCOCC5)n4n3)CC2)cc1 | 636
29 | COc1ccc(C)cc1NC(=O)Cn1ncc2c(c1=O)N(C1CC1)C(=O)CS2 | 794
30 | CC1=C(C(=O)Nc2cccc(C(=O)N3CCN(c4ccccc4)CC3)c2)SCCO1 | 873
31 | O=C(c1cccc(Br)c1)N1CCN(c2nnc3ccccn23)CC1 | 662
32 | C=C1C(=O)C2=CC1CCC(=O)C1(C)CCC(OC(C)=O)C(C)(C)C1CC2O (stereo not given) | 718
33 | CCCSCCCNC(=O)CN1C(=O)CCn2nc(-c3cn(C)c4ccccc34)cc21 | 832
34 | COc1ccc(N2CCN(c3ncc(S(=O)(=O)c4ccc(C)c(C)c4)c(N)n3)CC2)cc1 | 966
35 | Cc1cc(C)c(S(=O)(=O)N2CCc3c(c(-c4nnc(-c5ccccc5F)o4)nn3C)C2)c(C)c1 | 1070
36 | Cc1cc(CN2CCC(CNC(=O)C(=O)NCc3ccccc3Cl)CC2)c(C)o1 | 592
37 | CCOc1ccccc1NC(=O)Cn1nc2c(Oc3ccccc3C)nccn2c1=O | 935
38 | CCN1CCCC1CN(CC(=O)N1CCNCC1)S(=O)(=O)c1ccc(Br)cc1 (stereo not given) | 583
39 | O=C(O)c1ccccc1-c1ccccc1C(=O)Nc1nc2ccccc2s1 | 867
40 | CCOC(=O)c1ccc(NC(=O)C2CCCN(c3nnc4c(Cl)cccn34)C2)cc1 (stereo not given) | 802
41 | COc1nccnc1N1CCC(N(C)C(=O)Cc2ccsc2)C1 (stereo not given) | 719

The remaining lines, values ahead:

Row | RP-LC retention time [s] | Compound
42 | 1220 | COc1ccc2nc(-n3nc(C)cc3NC(=O)c3ccc([N+](=O)[O-])o3)sc2c1
43 | 834 | COc1cc(CN(CC2CCCO2)C(=O)c2ccc(F)cc2)cc(OC)c1OC (stereo not given)
44 | 708 | C[C@H](NCc1ccc(OCc2cccc(F)c2)cc1)C(N)=O
45 | 929 | CCOC(=O)c1cccc(NC(=O)Cc2csc3nc(-c4ccc(C)c(C)c4)cn23)c1
46 | 687 | CCOc1ccc(S(=O)(=O)Nc2cc(-c3cn4ccccc4n3)ccc2C)cc1
47 | 1090 | COc1ccc(C2(C(=O)N3CCC4(CC3)C(OC)CN4c3cccc(F)c3)CC2)cc1 (stereo not given)
48 | 1100 | CSc1ccc(Nc2ncccc2S(=O)(=O)Nc2ccc(F)cc2)cc1
49 | 1010 | COc1cccc(NC(=O)Cn2nc3cc(C)nc(Nc4ccccc4C)n3c2=O)c1
50 | 619 | Cc1nc2cccnc2n1C1CCN(C(=O)Nc2ccc(F)cc2F)CC1
51 | 650 | Fc1cccc(N2CC3(CCN(Cc4ccncc4F)CC3)C2c2ccccc2)c1 (stereo not given)
52 | 1070 | CCCCOC(=O)c1ccc(NC(=O)c2c(O)c3cccc4c3n(c2=O)CC4)cc1
53 | 836 | Cc1noc(-c2ccc(OC3CN(C(=O)NCc4ccccc4)C3)cc2)n1
54 | 622 | CC(Oc1cccc(Cl)c1)C(=O)N1CCn2cnnc2C1 (stereo not given)
55 | 998 | O=C(Nc1ccc(F)c(F)c1)C1CCCN(S(=O)(=O)Cc2ccccc2)C1 (stereo not given)
56 | 732 | CC(C)Sc1ccc(CC(=O)N2CC(c3nc(-c4ncccn4)no3)C2)cc1
57 | 896 | COc1cccc(CNc2cc(-n3nc(C)cc3C)ncn2)c1
58 | 906 | COc1ccc(-c2nsc(SCC(=O)Nc3ccc4c(c3)OCCO4)n2)cc1
59 | 783 | COc1ccc2nc(C(=O)NCc3ccc(F)cc3)cn2n1
60 | 1020 | O=C1N(c2cccc(F)c2)c2ncccc2S(=O)(=O)N1Cc1ccccc1
61 | 1390 | CCCN(C(=O)c1ccco1)c1nc(-c2ccc(C)cc2)cs1
62 | 805 | Cc1nc(CC(=O)NCc2ccc(C(F)(F)F)cc2)sc1C(=O)NCc1ccccc1
63 | 779 | COc1ccc(S(=O)(=O)NCc2ccc3c(c2)CCN3C(C)=O)cc1Cl
64 | 1130 | CCc1nc(-c2cccc(-c3noc(CNS(=O)(=O)c4ccc(Cl)cc4)n3)c2)cs1
65 | 1010 | CC1=C(C(=O)N(CC(=O)NCc2ccc(C)cc2)c2ccc(Cl)cc2)SCCO1
